Experimental data published in patent publication US11673916B2, “Neuroprotective peptides and methods of their use” (University of Pittsburgh—Of the Commonwealth System of …, priority 2020, dated 2023).

Test system: MCAo mouse model of ischemic stroke
Experiment: Transient middle cerebral artery occlusion (MCAo), infarct ratio by TTC staining
Assay type: in vivo
Details: 50 minutes MCAo, IP peptide at one and six hours after reperfusion, 24 h after reperfusion, mean±SEM (FIG. 6D)
Description: Mice were anesthetized with isoflurane and the common carotid artery was exposed. A single-use silicon-coated suture (MCAo suture #602256PK10; Doccol Corporation, Sharron, Mass.) was advanced 8-9 mm into the internal carotid artery, occluding the MCA. The suture was secured with 6-0 silk ligatures for 50 minutes, then removed. Twenty-four hours following cerebral reperfusion, mice were sacrificed and four 2-mm coronal brain sections were obtained from each animal. Sections were stained with 0.05% 2,3,5-triphenyltetrazolium chloride (TTC) in PBS for 30 minutes at room temperature. Brain sections were digitally scanned following staining and a blinded experimenter measured infarct ratios (infarct area/total section area) using NIH ImageJ software. Visual representation of this protocol is in FIG. 6B.
The neuroprotective efficacy of TAT-DP-2 in vivo was next tested. […]
Twenty-four hours following cerebral reperfusion after MCAo, total infarct ratios were analyzed (FIG. 6B) in tetrazolium chloride-stained brain sections (FIGS. 6B and 6C). […] A different, blinded observer then analyzed each animal and assigned an objective murine neurological score (MNS; Table 3) to each mouse over a 42-day period. As the MNS is based solely on characteristic motor deficits developed following left MCAo, all animals initially scored zero on the scale.

YGRKKRRQRRRDFSSIST [TAT-Sc-2, TAT-linked scramble control peptide]
mean total infarct ratio: 0.121±0.009

YGRKKRRQRRRSIDSFTS [TAT-DP-2, TAT-linked declustering peptide 2]
mean total infarct ratio: 0.071±0.020
